Active and inactive are the calls of the source.
Experiments:
[1] = target: T1, Heat shock factor protein 1 (Mus musculus, UniProt P38532); experiment: decrease of HSF1-responsive luciferase luminescence – cell-based, NIH3T3, dose retest, confirmation (AID 2382); type: functional;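 further: NIH3T3 fibroblasts with HSF1-driven luciferase reporter stressed by proteasome inhibitor MG132; luminescence from HSF1-driven luciferase expression after 8 hours of MG132 stress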
T1 sequence (P38532 whole entry): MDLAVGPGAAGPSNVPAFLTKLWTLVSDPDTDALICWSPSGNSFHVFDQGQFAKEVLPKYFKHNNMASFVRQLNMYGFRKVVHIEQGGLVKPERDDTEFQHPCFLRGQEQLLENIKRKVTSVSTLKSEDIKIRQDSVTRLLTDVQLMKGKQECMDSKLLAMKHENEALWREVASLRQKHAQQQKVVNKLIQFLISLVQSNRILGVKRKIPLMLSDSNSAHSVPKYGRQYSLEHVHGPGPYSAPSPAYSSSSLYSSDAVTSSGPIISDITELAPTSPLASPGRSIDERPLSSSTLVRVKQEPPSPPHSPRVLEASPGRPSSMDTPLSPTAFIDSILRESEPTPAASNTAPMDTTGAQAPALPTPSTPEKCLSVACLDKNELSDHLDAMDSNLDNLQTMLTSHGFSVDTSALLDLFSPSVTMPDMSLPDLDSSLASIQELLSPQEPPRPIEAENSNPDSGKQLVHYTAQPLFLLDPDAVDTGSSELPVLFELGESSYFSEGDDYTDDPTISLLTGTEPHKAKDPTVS

[2] = alpha-synuclein stem-loop luciferase translation blockers – H4 neuroglioma cells, luminescence, confirmation (AID 1988); type: functional, cell-based
[3] = Luminescence Cell-Based Dose Response HTS to Identify Inhibitors of 5'UTR Stem-Loop Driven Prion Protein mRNA Translation in H4 Neuroglioblastoma Cells. [Related pubchem assays: 1827 (Project Summary), 1813 (Primary HTS)]; type: functional
[4] = luciferase reporter signal suppression in cells – H4 neuroglioma cells, luminescence, dose response (AID 1990); type: functional, cell-based
Protein skinhead-1 = target: T2, Protein skinhead-1 (Caenorhabditis elegans, UniProt P34707); type: functional
T2 sequence (P34707 whole entry): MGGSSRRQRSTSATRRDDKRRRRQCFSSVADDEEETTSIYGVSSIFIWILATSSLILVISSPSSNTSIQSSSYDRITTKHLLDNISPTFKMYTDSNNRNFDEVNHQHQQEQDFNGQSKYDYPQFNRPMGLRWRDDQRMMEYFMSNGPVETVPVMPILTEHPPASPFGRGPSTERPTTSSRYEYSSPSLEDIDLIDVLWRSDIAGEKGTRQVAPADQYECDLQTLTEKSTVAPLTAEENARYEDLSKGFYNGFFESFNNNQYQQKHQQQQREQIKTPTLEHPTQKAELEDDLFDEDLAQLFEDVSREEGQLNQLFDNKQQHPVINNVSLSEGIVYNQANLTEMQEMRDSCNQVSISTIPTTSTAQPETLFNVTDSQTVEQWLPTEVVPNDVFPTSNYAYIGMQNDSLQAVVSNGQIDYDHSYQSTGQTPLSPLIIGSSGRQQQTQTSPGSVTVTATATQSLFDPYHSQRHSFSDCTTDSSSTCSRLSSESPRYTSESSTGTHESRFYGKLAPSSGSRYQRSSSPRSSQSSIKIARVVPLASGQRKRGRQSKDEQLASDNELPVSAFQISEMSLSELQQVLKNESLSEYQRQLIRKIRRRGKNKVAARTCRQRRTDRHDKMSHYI

[5] = target: T3, Corticotropin-releasing factor receptor 2/Corticotropin-releasing factor-binding protein (Homo sapiens, UniProt P24387+Q13324); experiment: Dose Response confirmation of uHTS hits for small molecule antagonists of the CRF-binding protein and CRF-R2 receptor complex.; type: functional; settings: read-out: IC50_Mean
T3 sequence (Q13324 whole entry): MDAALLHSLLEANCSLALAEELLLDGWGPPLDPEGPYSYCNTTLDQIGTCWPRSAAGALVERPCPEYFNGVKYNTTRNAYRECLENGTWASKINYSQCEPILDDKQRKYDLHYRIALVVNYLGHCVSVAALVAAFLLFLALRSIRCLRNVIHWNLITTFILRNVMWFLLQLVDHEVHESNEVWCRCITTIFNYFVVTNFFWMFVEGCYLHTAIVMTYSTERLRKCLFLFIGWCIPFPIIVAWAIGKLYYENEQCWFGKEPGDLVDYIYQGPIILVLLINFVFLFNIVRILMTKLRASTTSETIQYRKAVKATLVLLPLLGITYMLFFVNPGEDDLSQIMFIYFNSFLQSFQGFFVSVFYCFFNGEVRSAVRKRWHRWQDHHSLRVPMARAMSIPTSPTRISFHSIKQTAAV
T3 sequence (P24387 whole entry): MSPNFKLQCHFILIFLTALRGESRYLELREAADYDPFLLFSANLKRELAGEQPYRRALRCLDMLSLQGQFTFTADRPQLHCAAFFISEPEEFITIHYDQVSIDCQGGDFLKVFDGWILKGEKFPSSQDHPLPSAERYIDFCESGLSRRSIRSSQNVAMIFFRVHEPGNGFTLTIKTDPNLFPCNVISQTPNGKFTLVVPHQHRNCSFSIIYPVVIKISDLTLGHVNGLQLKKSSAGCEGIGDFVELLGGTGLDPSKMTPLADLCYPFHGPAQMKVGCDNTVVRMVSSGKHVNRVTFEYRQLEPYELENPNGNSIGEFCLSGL

[6] = target: T3, Corticotropin-releasing factor receptor 2/Corticotropin-releasing factor-binding protein; experiment: activators of CRF receptor 2 with binding protein – uHTS hits, confirmation (AID 602473); type: functional; settings: read-out: EC50_Mean
H9c2 = experiment: cells; type: functional, cell-based; settings: Rattus norvegicus, H9c2, Myocardium;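 further: confirmatory concentration-response retest of ultra-high-throughput screening hits for modulation of myocardial damage; cell death induced by hydrogen peroxide oxidative stress; compound pretreatment for 60 min then peroxide exposure for 2 h; potency is for protecting the cells against peroxide damage rather than for killing them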
[7] = target: T4, Replicative DNA helicase DnaB (Mycobacterium tuberculosis, UniProt P9WMR3); experiment: DnaB intein splicing inhibitors, dose response, biochemical, cell-free fluorescence (AID 449749); type: functional
T4 sequence (P9WMR3 whole entry): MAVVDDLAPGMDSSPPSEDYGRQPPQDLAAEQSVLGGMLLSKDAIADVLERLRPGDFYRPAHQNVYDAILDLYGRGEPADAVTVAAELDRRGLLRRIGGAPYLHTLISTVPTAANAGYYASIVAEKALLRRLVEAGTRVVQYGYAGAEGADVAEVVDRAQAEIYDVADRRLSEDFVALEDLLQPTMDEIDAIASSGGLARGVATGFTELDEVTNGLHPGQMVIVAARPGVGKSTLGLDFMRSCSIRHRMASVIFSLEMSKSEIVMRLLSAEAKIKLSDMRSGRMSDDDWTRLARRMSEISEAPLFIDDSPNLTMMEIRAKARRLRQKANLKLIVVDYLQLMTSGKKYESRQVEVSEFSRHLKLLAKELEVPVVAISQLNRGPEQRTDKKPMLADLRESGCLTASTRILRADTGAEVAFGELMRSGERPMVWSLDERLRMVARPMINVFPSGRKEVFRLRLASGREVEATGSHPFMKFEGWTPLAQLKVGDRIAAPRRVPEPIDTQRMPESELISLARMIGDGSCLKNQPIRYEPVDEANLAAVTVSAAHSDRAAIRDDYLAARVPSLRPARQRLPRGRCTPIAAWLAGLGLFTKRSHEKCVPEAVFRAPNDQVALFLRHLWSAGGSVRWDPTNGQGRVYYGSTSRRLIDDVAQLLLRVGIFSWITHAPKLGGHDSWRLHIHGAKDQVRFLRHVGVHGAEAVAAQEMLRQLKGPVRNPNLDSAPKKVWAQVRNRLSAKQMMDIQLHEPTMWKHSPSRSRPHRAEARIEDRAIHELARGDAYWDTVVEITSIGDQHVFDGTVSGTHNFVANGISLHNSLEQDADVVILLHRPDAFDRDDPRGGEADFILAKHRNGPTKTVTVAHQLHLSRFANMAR

Protein RecA = target: T5, Protein RecA (Mycobacterium tuberculosis, UniProt P9WHJ3); experiment: Fluorescence Cell-Free Homogeneous Dose Retest to Identify Inhibitors of RecA-Intein Splicing Activity. [Related pubchem assays (depositor defined):AID2097, AID2223, AID489010, AID492950]; type: functional
T5 sequence (P9WHJ3 whole entry): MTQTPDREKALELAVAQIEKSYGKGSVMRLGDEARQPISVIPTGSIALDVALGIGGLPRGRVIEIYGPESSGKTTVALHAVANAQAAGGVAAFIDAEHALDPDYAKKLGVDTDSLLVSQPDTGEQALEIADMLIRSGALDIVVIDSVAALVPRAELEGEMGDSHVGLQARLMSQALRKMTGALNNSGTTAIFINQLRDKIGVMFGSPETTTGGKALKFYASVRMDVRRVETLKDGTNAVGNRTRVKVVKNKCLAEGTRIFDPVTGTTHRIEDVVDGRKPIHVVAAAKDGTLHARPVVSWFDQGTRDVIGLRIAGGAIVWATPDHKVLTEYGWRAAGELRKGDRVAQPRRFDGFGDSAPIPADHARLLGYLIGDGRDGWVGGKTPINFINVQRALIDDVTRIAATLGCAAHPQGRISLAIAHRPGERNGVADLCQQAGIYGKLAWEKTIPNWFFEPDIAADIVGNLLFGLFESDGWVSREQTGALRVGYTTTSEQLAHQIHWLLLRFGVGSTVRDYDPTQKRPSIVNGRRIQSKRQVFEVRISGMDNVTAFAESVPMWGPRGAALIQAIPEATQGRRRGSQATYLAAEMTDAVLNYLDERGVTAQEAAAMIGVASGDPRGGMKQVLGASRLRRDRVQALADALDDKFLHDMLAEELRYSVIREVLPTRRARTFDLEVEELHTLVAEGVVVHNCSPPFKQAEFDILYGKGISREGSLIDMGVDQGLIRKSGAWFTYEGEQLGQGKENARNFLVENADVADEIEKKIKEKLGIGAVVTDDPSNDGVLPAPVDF

Cytochrome P450 2C9 = Cytochrome P450 2C9 (Homo sapiens, UniProt P11712)
Cytochrome P450 3A4 = Cytochrome P450 3A4 (Homo sapiens, UniProt P08684);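 further: CYP3A4 tested as one member of a cytochrome P450 panel screen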
Chain of Cytochrome P450 3A4 (P08684 whole entry): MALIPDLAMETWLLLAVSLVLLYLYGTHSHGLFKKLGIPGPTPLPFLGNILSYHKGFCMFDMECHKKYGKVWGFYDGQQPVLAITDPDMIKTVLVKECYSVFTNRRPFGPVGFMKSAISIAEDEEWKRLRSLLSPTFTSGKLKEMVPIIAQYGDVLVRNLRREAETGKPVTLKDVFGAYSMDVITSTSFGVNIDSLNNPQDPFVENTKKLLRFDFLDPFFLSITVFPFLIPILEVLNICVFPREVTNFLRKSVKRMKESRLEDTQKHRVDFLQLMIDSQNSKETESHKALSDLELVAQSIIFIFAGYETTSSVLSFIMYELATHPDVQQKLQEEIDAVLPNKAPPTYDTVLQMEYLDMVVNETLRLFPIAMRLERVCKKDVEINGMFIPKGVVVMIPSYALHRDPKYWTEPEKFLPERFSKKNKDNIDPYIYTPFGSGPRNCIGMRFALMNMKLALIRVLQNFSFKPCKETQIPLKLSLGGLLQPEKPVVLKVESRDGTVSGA

Chain of Cytochrome P450 2C9 (P11712 whole entry): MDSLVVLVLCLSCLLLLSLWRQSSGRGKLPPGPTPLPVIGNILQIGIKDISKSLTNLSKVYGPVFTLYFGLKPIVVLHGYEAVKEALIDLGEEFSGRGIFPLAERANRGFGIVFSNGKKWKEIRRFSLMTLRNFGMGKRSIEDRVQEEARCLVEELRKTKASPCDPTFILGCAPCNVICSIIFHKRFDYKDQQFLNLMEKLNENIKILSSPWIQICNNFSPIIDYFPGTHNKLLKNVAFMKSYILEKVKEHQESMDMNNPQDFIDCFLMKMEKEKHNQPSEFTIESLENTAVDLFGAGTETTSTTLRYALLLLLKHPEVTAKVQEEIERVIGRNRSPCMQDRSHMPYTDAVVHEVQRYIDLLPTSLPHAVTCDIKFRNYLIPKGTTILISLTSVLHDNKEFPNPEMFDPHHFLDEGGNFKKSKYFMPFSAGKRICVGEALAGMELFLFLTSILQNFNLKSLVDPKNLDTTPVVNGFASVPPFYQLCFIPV

SMILES	EC50 [2]	EC50 [3]	EC50 [4]	IC50 (Protein skinhead-1)	also measured
Cc1cc(/C(O)=C(/C([S-])=Nc2ccccc2)[n+]2ccccc2)c(C)n1-c1ccccc1	> 120 µM (not active)	> 120 µM (not active)	> 120 µM (not active)		EC50 [1]: 2.53 µM (active)
CCn1c(CCC(=O)Nc2nc3c(s2)CCCC3)nc2cc(S(=O)(=O)N(C)C)ccc21				> 100 µM (inactive)	
CC(C)NC(=O)COC(=O)c1ccc(S(=O)(=O)N2CCCC2)cc1	> 120 µM (not active)	> 120 µM (not active)	> 120 µM (not active)		
COC(=O)c1cc(C#N)c(N(C)Cc2ccccc2)nc1C					IC50 [5]: 5.03 µM (active); EC50 [6]: > 53 µM (inactive)
O=C(Nc1ccc(S(=O)(=O)NC2CCCCC2)cc1)c1ccco1	> 120 µM (not active)	> 120 µM (not active)	26.7 µM (active)		
O=C(Cc1c(O)c2ccccc2[nH]c1=O)OC1CCCCC1					IC50 [5]: > 47.1 µM (inactive); EC50 [6]: > 53 µM (inactive)
C=CCc1ccccc1OCC(=O)N/N=C/c1ccc(OC(C)=O)cc1OC(C)=O	10.6 µM (active)	14.6 µM (active)	12.3 µM (active)		IC50 (H9c2): > 79 µM (inactive)
Clc1ccc(N2CCN(c3ccnc(Cl)n3)CC2)cc1				26.3 µM (active)	
O=C(CSc1nc2ccccc2c(=O)n1Cc1ccco1)N1CCCC1	> 120 µM (not active)	> 120 µM (not active)	20.3 µM (active)		
O=C1C(=C2SCCCS2)CC/C1=C\c1ccc(F)cc1	0.116 µM (active)	4.36 µM (active)	0.238 µM (active)		
CCCOc1cc(C)c(S(=O)(=O)NCc2cccs2)cc1C				> 100 µM (inactive)	
COc1cc2c(cc1OC)C(C)N(C(=O)c1cc(C)on1)CC2 (stereo unspecified)	0.415 µM (active)	3.88 µM (active)	4.12 µM (active)		
Cc1c(OCC(=O)Nc2cccnc2)ccc2c3c(c(=O)oc12)CCC3	> 120 µM (not active)	> 120 µM (not active)			AC50 [7]: 2.65 µM (active); EC50 (Protein RecA): 2.26 µM (active)
COc1ccccc1NC(=O)CN1C(=O)CCS(=O)(=O)c2ccccc21					IC50 [5]: > 47.1 µM (inactive); EC50 [6]: > 53 µM (inactive)
COc1ccc(Cc2c(-c3ccco3)nc3c(C)cc(Br)cn23)c(C)c1				> 100 µM (inactive)	
Cc1nc2nc(CSc3nc4ccccc4s3)cc(O)n2n1				> 100 µM (inactive)	
COC(=O)C(F)(F)Sc1c(C)[nH]c2ccccc12					IC50 [5]: 15.4 µM (active); EC50 [6]: > 53 µM (inactive)
Cc1cccc(NC2=NC(=O)/C(=C/c3cccn3C)S2)c1C				> 100 µM (inactive)	
CC1CCc2c(C(=O)Nc3ccccn3)csc2C1 (stereo unspecified)					IC50 [5]: > 47.1 µM (inactive); EC50 [6]: > 53 µM (inactive)
CC(C)OC(=O)CSc1nnnn1-c1ccc2c(c1)OCCO2				> 100 µM (inactive)	
C[C@](N)(CCP(=O)(O)O)C(=O)O				> 100 µM (inactive)	
COc1ccc(OC)c(Nc2nc(-c3cccc([N+](=O)[O-])c3)nc3ccccc23)c1	69.3 µM (active)	21.7 µM (active)	> 120 µM (not active)		AC50 (Cytochrome P450 2C9): 0.355 µM (inconclusive); AC50 (Cytochrome P450 3A4): 2.82 µM (inconclusive)
O=C(Nc1ccc(OC(=O)N2CCCC2)cc1)N1CCOCC1				> 100 µM (inactive)	

From ChEMBL document CHEMBL1201862, “PubChem BioAssay data set” (2004)
